Measurements as given in patent US8562586B2, “Devices and systems for local delivery of inotropic agents to the epicardium” (Massachusetts Institute of Technology, priority 2008, dated 2013).

What was measured:
[1] = intravenous infusion systems; cited from earlier work
Sprague Dawley rat = experiment: Hemodynamic and contractile indices in anesthetized rat, epicardial alginate patch vs IV infusion; format: in vivo; conditions: for systemic vascular resistance: FIG. 5
Method: A Sprague Dawley rat was anesthetized with pentobarbital and catheters were placed in the right internal jugular vein and right femoral artery for continuous pressure measurement and IV access. An arteriotomy in the right carotid artery allowed passage of a Millar (Houston, Tex.) conductance pressure-volume catheter across the aortic valve and into the left ventricle. This catheter allows measurement of indices of myocardial contractile function. A tracheotomy was performed and the animal ventilated prior to sternotomy and chest retraction.
A pericardial drug releasing platform was made from a calcium crosslinked alginate disk (6.5 mm diameter) and placed on top of the left ventricle. Dobutamine was then applied to the drug release platform for pericardial inotropic treatments. […]

Hannaford swine = experiment: Hemodynamic measurements in anesthetized swine, epicardial patch vs pericardial catheter vs IV; format: in vivo
Method: Hannaford swine (15-25 weeks old, 45-60 kg) were fasted overnight but given full access to water. Telazol (2 mg/kg IM at a ratio of zolazepam:tiletamine of 1:1) was given IM for sedation. Anesthesia was induced with inhaled isoflurane 2% prior to tracheal intubation (9.0 cuffed). A 22 gauge peripheral IV was inserted into an ear vein for drug administration and volume resuscitation (Ringer's lactate 4 ml/kg/hr). Anesthesia was maintained during surgical preparation with isoflurane 2% in oxygen. Respiratory rate was be fixed to 10 breaths per minute and the tidal volume adjusted between 6 and 10 ml/kg to maintain expired end-tidal carbon dioxide between 35 and 40 mmHg. Inhaled isoflurane was discontinued after surgical preparation, and balanced total intravenous anesthesia was initiated with pentobarbital (10 mg/kg/hr) and pancuronium (0.5 mcg/kg/hr) prior to experimentation.
Vascular access introducer sheaths (7 FR) were placed in a femoral vein, the right internal jugular vein and both femoral arteries using a Seldinger technique under ultrasound guidance. A balloon tipped pulmonary artery catheter was inserted through the right internal jugular venous sheath and into the pulmonary artery to allow measurement of central venous pressure (CVP), pulmonary artery pressures, and thermodilution cardiac output. Heparin 5000 units was given to keep activated clotting time above 250 seconds. A pig-tail Millar conductance catheter was advanced retrograde across the aortic valve from the right femoral arterial sheath, and allows instantaneous recordings of the pressure and volume within the left ventricle. Following midline sternotomy the pericardium was retracted. Excess Ringer's lactate solution was given to replace blood losses and maintain CVP greater than 8 mm Hg. Continuous hemodynamic measurements were taken including heart rate (HR), mean arterial pressure (MAP), central venous pressure (CVP), contractility (max dP/dt), systemic vascular resistance (SVR), stroke volume (SV), cardiac output (CO) and stroke work (SW).
A pericardial drug releasing platform was constructed from 2 calcium crosslinked alginate disks which were sealed around the edges with GluStitch and formed a bladder for pericardial drug. A catheter was placed into the bladder formed by the two disks and allowed continuous infusion of inotropic drug into the pericardial fluid. This device spread drug over the surface of the heart at a controllable rate of delivery. In another experiment, dobutamine was introduced into the pericardial sac through a catheter without the use of the patch.
In yet another experiment, dobutamine was introduced intravenously.

[2] = Plasma dobutamine levels in arterial blood samples of swine; format: in vivo; conditions: FIG. 10
Description: Arterial blood samples were taken for measurement of plasma dobutamine levels.

[3] = Drug levels within the myocardium, tissue core from under the device, swine; format: in vivo; conditions: patch release compared with IV infusion at the same dosage, all tissue depths, FIG. 11
Description: The heart was arrested with a large potassium IV bolus and removed. A core of tissue from under the device was taken for measurement of drug levels within the myocardium.

[4] = patch delivery, PV loop, FIG. 4
[5] = patch release 1 mcg/kg/min compared with IV infusion at the same dosage, FIG. 3
[6] = patch release compared with intravenous infusion, FIG. 6

C[C@@H]1CC(=O)NN=C1c1ccc(NN=C(C#N)C#N)cc1 [levosimendan]
dosage typically required for therapeutic effect on contractility [1]: ≥ 0.1 µg/kg/min

CC(CCc1ccc(O)cc1)NCCc1ccc(O)c(O)c1 (centres unmarked) [dobutamine]
systemic vascular resistance (Sprague Dawley rat; intravenous infusion 1 mcg/kg/min): excessively decreases | cardiac work efficiency (Sprague Dawley rat; patch 1 mcg/kg/min compared with IV infusion at the same dosage, FIG. 4): more efficient cardiac work | ventricular stroke volume (Sprague Dawley rat; patch 1 mcg/kg/min compared with IV infusion at the same dosage, pressure volume loops, FIG. 4): greater ventricular stroke volume | LV pressure during ejection (Sprague Dawley rat; [4]): no increase | diastolic filling (Sprague Dawley rat; [4]): minimal change | end-systolic volume (Sprague Dawley rat; [4]): marked reduction | myocardial stroke work (SW) (Sprague Dawley rat; patch delivery, area inside PV loop, FIG. 4): minimal increase | contractility of myocardial tissue (max dP/dt) (Sprague Dawley rat; [5]): greater increase in contractility | duration of the increase in contractility (Sprague Dawley rat; [5]): sustained for a longer period of time | systemic vascular resistance (Sprague Dawley rat; patch release 1 mcg/kg/min): only minimal effect | increase in contractility relative to dose (Sprague Dawley rat; [6]): larger increase in contractility with a smaller dose | potency and effect on contractility (Sprague Dawley rat; [6]): more potent and efficacious | time response of increasing contractility (Hannaford swine; after pericardial application, FIG. 8): very rapid | stroke work per stroke volume (Hannaford swine; patch 0.5 mcg/kg/min compared with IV infusion at the same dosage, FIG. 9): less | myocardial contractility, dose response (Hannaford swine; patch release compared with release via catheter in the pericardial sac, FIG. 7): greater increase | cardiac output (Hannaford swine; patch release, FIG. 8): increased | contractility (Hannaford swine; patch release, FIG. 8): increased | systemic vascular resistance (Hannaford swine; patch release, FIG. 8): without significantly reducing | plasma concentration ([2]; intravenous infusion compared with patch release): substantially higher | plasma drug levels ([2]; pericardial (patch) delivery compared with IV delivery): lower | myocardial dobutamine concentration [3]: orders of magnitude higher | dosage typically required for therapeutic effect on contractility [1]: at least 2 mcg/kg/min
